The values that follow come from patent publication US3997557A, “Substituted N-aminoalkylpyrroles” (American Hoechst Corporation, priority 1974, dated 1976).

Structures are written as SMILES. Counter-ions that a name gives are not always drawn.

Broadly, the inhibition in vivo is the relative decrease from the control value, in per cent.

For one test, the system named is central nervous system. Nature of the test: Mouse observation procedure of S. Irwin, central nervous system depressant effects (tranquilizer). It is filed as in vivo. Conditions: male COBS mice, behavior and reflex depression, muscle relaxation, read-out: minimum effective dose (MED)/Kilogram of body weight. The procedure: The compounds of the invention are useful as tranquilizers because of their depressant effects on the central nervous system. The depressant effects on the central nervous system were evaluated according to the mouse observation procedure of S. Irwin, Psychopharmacologia, 13, 222 (1968). Male COBS mice are dosed with the drug, and its effects on behavior and reflex depression together with muscle relaxation determined by the degree of deviation from control scores, with activity expressed in terms of minimum effective dose (MED). The effectiveness of compounds of the invention as tranquilizers is illustrated in Table I below.

The next test concerns isolated rabbit atrium. Nature of the test: Isolated rabbit atrium, increase in functional refractory period (antiarrhythmic). Conditions: Oryctolagus cuniculus; for activation at 1 µM: 10^-6 molar; for activation at 10 µM: 10^-5 molar; for activation at 20 µM: 2 × 10^-5 molar. The procedure:
The compounds of the invention are useful as antiarrhythmic agents because of their ability to alleviate cardiac arrhythmias. […] 198] wherein the compounds effect an increase in the functional refractory period. Compounds are dissolved in Krebs-Henseleit solution, and the percent change in the functional refractory period is monitored with an oscilloscope. […] Similarly at a concentration of 10^-^6 molar 1-(3-dimethylaminopropyl)-2-(p-bromophenyl)-4,5,6,7-tetrahydroindole hydrochloride and 1-(2-methylaminoethyl)-2-phenyl-1,4,5,6,7,8-hexahydrocyclohepta[b]pyrrole hydrochloride each effect a 150% increase in the functional refractory period.

Test [1] concerns spontaneous hypertensive rat. The test is described as follows: Lowering of blood pressure in the spontaneous hypertensive rat, indirect tail cuff method. It is filed as in vivo. Conditions: 100 mg/kg of body weight. The method, then:
The compounds of this invention are also useful as antihypertensive agents because of their ability to lower blood pressure in mammals. […] 135. For example, at a dose of 100 mg/kg of body weight, the compounds shown in Table III below effect the corresponding decrease in systolic blood pressure.

Test [2] relates to carrageenin-induced rat paw edema. The test is described as follows: Carrageenin-induced rat paw edema antiinflammatory assay. It is filed as in vivo. Conditions: 200 mg/kg of body weight. From the text: The compounds of this invention are useful as antiinflammatory agents because of their ability to suppress inflammation in mammals. […] Exp. Biol. Med. III, 544 (1962)].

For the compound `CNCCn1c(-c2ccccc2)cc2c1CCCCC2.Cl` [Example 36, 1-(2-methylaminoethyl)-2-phenyl-1,4,5,6,7,8-hexahydrocyclohepta[b]pyrrole hydrochloride], the minimal effective dose with central nervous system stood at 50 mg/kg. The compound also returned an activation at 1 µM with isolated rabbit atrium of 150%. As for `CNCCCn1c(-c2ccccc2)cc2c1CCC2.O=C(O)C(=O)O` [Example 34, 1-(3-methylaminopropyl)-2-phenyl-1,4,5,6-tetrahydrocyclopenta[b]pyrrole oxalate], the minimal effective dose with central nervous system is 25 mg/kg. For `CN(C)CCCn1c(-c2ccccc2)cc2c1-c1ccccc1CC2.Cl` [Example 30, 1-(3-dimethylaminopropyl)-2-phenyl-4,5-dihydrobenz[g]indole hydrochloride], the “decrease in systolic blood pressure” value in test [1] was 24 mm Hg.

As to `CC(C)N(CCn1c(-c2ccc(O)cc2)cc2c1CCCC2)C(C)C` [Example 23, 1-(2-diisopropylaminoethyl)-2-(p-hydroxyphenyl)-4,5,6,7-tetrahydroindole], the inhibition in vivo at 200 mg/kg in test [2] was found to be 44%. `CNCCCn1c(-c2ccc(OC)cc2)cc2c1CCCCC2.O=C(O)C(=O)O` [Example 49, 1-(3-methylaminopropyl)-2-(p-methoxyphenyl)-1,4,5,6,7,8-hexahydrocyclohepta[b]-pyrrole oxalate]: in the test with central nervous system, the minimal effective dose was 10 mg/kg. For `CC(CN(C)C)n1c(-c2cccc(C(F)(F)F)c2)cc2c1CCCC2` (stereo not shown) [1-(1-methyl-2-dimethylaminoethyl)-2(m-trifluoromethylphenyl)-4,5,6,7-tetrahydroindole . HCl], in test [2], the inhibition in vivo at 200 mg/kg was found to be 46%.

On to `c1ccc(-c2cc3c(n2CCN2CCNCC2)CCCC3)cc1` [Example 5, 1-[2-(1-piperazinylethyl)]-2-phenyl-4,5,6,7-tetrahydroindole . dioxalate], for which the minimal effective dose in the test on central nervous system worked out at 10 mg/kg. For the compound `CNCCn1c(-c2cccc(C(F)(F)F)c2)cc2c1CCCC2` [1-(2-methylaminoethyl)-2-(m-trifluoromethylphenyl)-4,5,6,7-tetrahydroindole], in test [2], the inhibition in vivo at 200 mg/kg stood at 58%. On to `CN(C)CCCn1c(-c2ccccc2)cc2c1CCCCCC2.Cl` [Example 56, 1-(3-dimethylaminopropyl)-2-phenyl-4,5,6,7,8,9-hexahydrocycloocta[b]pyrrole hydrochloride], for which the “decrease in systolic blood pressure” value in test [1] was found to be 50 mm Hg. In test [2], `CCN(CC)CCCn1c(-c2ccccc2)cc2c1CCc1ccccc1-2` [Example 32, hydrochloride] yielded an inhibition in vivo at 200 mg/kg of 72%. For the same compound, in test [1], the “decrease in systolic blood pressure” value came out at 40 mm Hg. The compound `CN(C)CCCn1c(-c2ccc(F)cc2)cc2c1CCCCCC2` [Example 60, 1-(3-dimethylaminopropyl)-2-(p-fluorophenyl)-4,5,6,7,8,9-hexahydrocycloocta[b]pyrrole oxalate] returned an activation at 10 µM in the test with isolated rabbit atrium of 139%.

For `CN(C)CCCn1c2c(c(-c3ccccc3)c1-c1ccccc1)CCCC2.O.O=C(O)C(=O)O` [Example 28, 1-(3-dimethylaminopropyl)-2,3-diphenyl-4,5,6,7-tetrahydroindole oxalate monohydrate], the minimal effective dose in the test on central nervous system amounted to 25 mg/kg. For `CN(C)CCCn1c(-c2ccc(N)cc2)cc2c1CCCCCC2` [1-(3-dimethylaminopropyl)-2-(p-aminophenyl)-4,5,6,7,8,9-hexahydrocycloocta[b]pyrrole], 200 mg/kg produced 57% inhibition in vivo in test [2]. Take `CCNCCn1c(-c2ccccc2)cc2c1CCCC2` [Example 3, 1-(2-ethylaminoethyl)-2-phenyl-4,5,6,7-tetrahydroindole . oxalate]: in the test on central nervous system, the minimal effective dose was found to be 25 mg/kg. For the compound `CCN(CC)CCn1c(-c2ccccc2)cc2c1CCC(C)C2` (stereo not shown) [Example 24, 1-(2-diethylaminoethyl)-2-phenyl-5-methyl-4,5,6,7-tetrahydroindole hydrochloride], in the test with isolated rabbit atrium, the activation at 10 µM came out at 208%. Consider `CN(C)CCn1c(-c2ccccc2)cc2c1CCCCC2` [Example 37, 1-(2-dimethylaminoethyl)-2-phenyl-1,4,5,6,7,8-hexahydrocyclohepta[b]pyrrole . HCl], for which, in test [1], the “decrease in systolic blood pressure” value is recorded as 45 mm Hg. In the case of `CN(C)CCCn1c(-c2ccccc2)cc2c1CCCC2` [Example 6, 1-(3-dimethylaminopropyl)-2-phenyl-4,5,6,7-tetrahydroindole . HCl], the inhibition in vivo at 200 mg/kg in test [2] came to 45%. With `CC(C)NCCCn1c(-c2ccccc2)cc2c1CCCCC2` [Example 43, 1-(3-isopropylaminopropyl)-2-phenyl-1,4,5,6,7,8-hexahydrocyclohepta[b]pyrrole . oxalate], the minimal effective dose in the test on central nervous system amounted to 37 mg/kg. As to `CN(C)CCCn1c(-c2cccc(C(F)(F)F)c2)cc2c1CCCC2` [1-(3-dimethylaminopropyl)-2-(m-trifluoromethylphenyl)-4,5,6,7-tetrahydroindole], the minimal effective dose with central nervous system is 40 mg/kg. For the compound `CN(C)CCCn1c(-c2ccc(F)cc2)cc2c1CCCCC2.Cl` [Example 55, 1-(3-dimethylaminopropyl)-2-(p-fluorophenyl)-1,4,5,6,7,8-hexahydrocyclohepta[b]pyrrole hydrochloride], the minimal effective dose in the test on central nervous system is 50 mg/kg. On to `CC(C)NC(C)Cn1c(-c2ccc(Cl)cc2)cc2c1CCCC2.Cl` (stereo not shown) [Example 21, 1-(2-isopropylaminopropyl)-2-(p-chlorophenyl)-4,5,6,7-tetrahydroindole hydrochloride], for which, in the test with central nervous system, the minimal effective dose is 50 mg/kg. Consider `COc1ccc(-c2cc3c(n2CCCN(C)C)CCCC3)cc1.Cl` [Example 11, 1-(3-dimethylaminopropyl)-2-(p-methoxyphenyl)-4,5,6,7-tetrahydroindole hydrochloride], for which 200 mg/kg produced 44% inhibition in vivo in test [2]. In addition, in the test on central nervous system, the minimal effective dose was found to be 50 mg/kg. Also, the activation at 10 µM in the test on isolated rabbit atrium amounted to 300%. For `CCN(CC)CCCn1c(-c2ccccc2)cc2c1CCc1ccccc1-2` [1-(3-diethylaminopropyl)-2-phenyl-4,5-dihydrobenz[e]-indole], in the test with central nervous system, the minimal effective dose is 20 mg/kg. In the case of `CN(C)CCCn1c(-c2ccc(N)cc2)cc2c1CCCCCC2.O.O=C(O)C(=O)O.O=C(O)C(=O)O` [Example 59, 1-(3-dimethylaminopropyl)-2-(p-aminophenyl)-4,5,6,7,8,9-hexahydrocycloocta[b]pyrrole dioxalate monohydrate], the minimal effective dose in the test with central nervous system turned out to be 25 mg/kg. Regarding `CCNCCn1c(-c2ccccc2)cc2c1CCCCCC2.O=C(O)C(=O)O` [Example 57, 1-(2-ethylaminoethyl)-2-phenyl-4,5,6,7,8,9-hexahydrocycloocta[b]pyrrole oxalate], in the test with central nervous system, the minimal effective dose turned out to be 25 mg/kg. `COc1cc(-c2cc3c(n2CCCN(C)C)CCCCC3)cc(OC)c1OC.Cl` [Example 54, 1-(3-dimethylaminopropyl)-2-(3,4,5-trimethoxyphenyl)-1,4,5,6,7,8-hexahydrocyclohepta[b]pyrrole hydrochloride]: in the test with central nervous system, the minimal effective dose is 50 mg/kg. Consider `CNCCn1c(-c2cccc(C(F)(F)F)c2)cc2c1CCCC2` [Example 14], for which the minimal effective dose in the test with central nervous system worked out at 25 mg/kg. This compound showed an activation at 20 µM in the test with isolated rabbit atrium of 200%. Turning to `CN(C)CCCn1c(-c2ccc(Cl)cc2)cc2c1CCCC2` [1-(3-dimethylaminopropyl)-2-(p-chlorophenyl)-4,5,6,7-tetrahydroindole], the inhibition in vivo at 200 mg/kg in test [2] amounted to 44%. For the compound `CN(C)CCCn1c(-c2ccccc2)cc2c1CCC2.Cl` [Example 35, 1-(3-dimethylaminopropyl)-2-phenyl-1,4,5,6-tetrahydrocyclopenta[b]pyrrole hydrochloride], the minimal effective dose in the test with central nervous system was determined as 50 mg/kg. For the same compound, the activation at 20 µM in the test with isolated rabbit atrium was found to be 233%. In turn, `CN(C)CCn1c(-c2ccccc2)cc2c1CCCC2` [Example 1, 1-(2-dimethylaminoethyl)-2-phenyl-4,5,6,7-tetrahydroindole hydrochloride] returned an inhibition in vivo at 200 mg/kg in test [2] of 47%. This compound came in with an activation at 20 µM with isolated rabbit atrium of 25%. For the compound `CCN(CC)CCn1c(-c2ccccc2)cc2c1CCC(C(C)(C)C)C2.Cl` (stereo not shown) [Example 25, 1-(2-diethylaminoethyl)-2-phenyl-5-(t-butyl)-4,5,6,7-tetrahydroindole hydrochloride], the minimal effective dose in the test on central nervous system was found to be 20 mg/kg. Besides, the “decrease in systolic blood pressure” value in test [1] is reported as 30 mm Hg.

In the test with isolated rabbit atrium, `CN(C)CCCn1c(-c2ccc([N+](=O)[O-])cc2)cc2c1CCCCCC2` [Example 58, 1-(3-dimethylaminopropyl)-2-(p-nitrophenyl)-4,5,6,7,8,9-hexahydrocycloocta[b]-pyrrole hydrochloride] returned an activation at 10 µM of 125%. In turn, `CC(CN(C)C)n1c(-c2ccccc2)cc2c1CCCCC2` (stereo not shown) [Example 38, 1-(1-methyl-2-dimethylaminoethyl)-2-phenyl-1,4,5,6,7,8-hexahydrocyclohepta[b]pyrrole . oxalate] displayed an inhibition in vivo at 200 mg/kg in test [2] of 58%. In addition, the minimal effective dose with central nervous system was found to be 6 mg/kg.

For the compound `CN(C)CCCn1c(-c2ccc(Br)cc2)cc2c1CCCC2` [Example 12, 2-(p-bromophenyl)-1-(3-dimethylaminopropyl)-4,5,6,7-tetrahydroindole hydrochloride], the activation at 1 µM in the test on isolated rabbit atrium worked out at 150%.
